For 18 molecules, IC50 and VLB/OV3 results are on record in patent US5593970A, “Heterocyclic anthracycline analogs” (priority 1994, dated 1997).

Common to all, as to assay: Microculture tetrazolium assay
Common to all, as to type: cell-based

In assay [1] the test system is SKOV3. The following applies: Homo sapiens, SK-OV-3, SKOV3.
In assay [2] the test system is HT29. The following applies: Homo sapiens, HT-29, HT29.
Assay [3] deals with SKVLB. The following applies: for VLB/OV3: IC50 ratio SKVLB/SKOV3; for IC50: SKVLB.
Assay [4] deals with LOX.
Assay [5] concerns T47D. The following applies: Homo sapiens.

Each structure is given as a SMILES string. Counter-ions that a name gives are not always drawn. Like-named read-outs stand apart in the source and are kept apart here.

As usually defined, the IC50 is the concentration needed to halve the response being measured.

As to `CC[C@@H]1Cc2c(O)c3c(c(O)c2[C@@H](O[C@H]2C[C@H](N)[C@H](O)[C@H](C)O2)O1)C(=O)c1ccccc1C3=O` [BCH-2016, (1'S,1R, 3R)-3-ethyl-5,12-dihydroxy-1-(2',3',6'-trideoxy-3'-amino-L-lyxohexopyranose)-1,2,3,4-tetrahydro-(2-oxygen)-naphthacene-6,11-dione-hydrochloride], the IC50 in assay [1] (read-out: IC50) stood at 93.4 nM; in assay [2] (read-out: IC50) it was 130 nM; in assay [3] (read-out: IC50), 670 nM; in assay [4] (read-out: IC50), 59.7 nM; in assay [5] (read-out: IC50), 345 nM. The VLB/OV3 in assay [3] is reported as 7.17.
Take `C[C@@H]1O[C@@H](O[C@H]2O[C@H](S(=O)(=O)c3ccccc3)CC3=C2C(=O)c2cc4ccccc4c(O)c2C3=O)C[C@H](NC(=O)C(F)(F)F)[C@@H]1O` [BCH-2025]: the IC50 in assay [1] came to 1970 nM; in assay [2] (read-out: IC50) it was 644 nM; in assay [3] (read-out: IC50), 6200 nM; in assay [4] (read-out: IC50), 1110 nM; in assay [5] (read-out: IC50), 3340 nM. The VLB/OV3 in assay [3] is reported as 3.15.
For the molecule `CC(=O)C1CC2=C(C(=O)c3cc4ccccc4c(O)c3C2=O)C(OC[C@@H](O)CO)O1` (stereo partly shown) [BCH-2034], the IC50 in assay [1] (read-out: IC50) was found to be 2950 nM; in assay [2] (read-out: IC50) it was 2050 nM; in assay [3], 7490 nM; in assay [4] (read-out: IC50) it was 1430 nM; in assay [5] (read-out: IC50), 7870 nM. Moreover, the VLB/OV3 in assay [3] is listed as 2.54.
Regarding `CC(=O)[C@H]1CC2=C(C(=O)c3cc4ccccc4c(O)c3C2=O)[C@H](O[C@H]2O[C@H](CO)[C@@H](O)[C@H](O)[C@H]2NC(=O)N(CCCl)N=O)O1` [BCH-2039], the IC50 was 13500 nM in assay [1]; 4430 nM in assay [2]; 81200 nM in assay [3]; 1550 nM in assay [4]; 12600 nM in assay [5]. Further, the VLB/OV3 in assay [3] was determined as 6.01.
For `CC(C)[C@H]1Cc2c(O)c3c(c(O)c2[C@H](O[C@H]2C[C@H](N)[C@H](O)[C@H](C)O2)O1)C(=O)c1ccccc1C3=O` [BCH-2049, (1'S,1S,3R)-5,12-trihydroxy-3-isopropyl-1-(2',3',6'-trideoxy-3'-amino-L-lyxohexopyranose)-1,2,3,4-tetrahydro-(2-oxygen)-naphthacene-6,11-dione-hydrochloride], the IC50 was 275 nM in assay [1] (read-out: IC50); 77.3 nM in assay [2] (read-out: IC50); 472 nM in assay [3] (read-out: IC50); 102 nM in assay [4] (read-out: IC50); 263 nM in assay [5] (read-out: IC50). Moreover, the VLB/OV3 in assay [3] is reported as 1.72.
With `CC(C)[C@@H]1Cc2c(O)c3c(c(O)c2[C@@H](O[C@H]2C[C@H](N)[C@H](O)[C@H](C)O2)O1)C(=O)c1ccccc1C3=O` [BCH-2050, (1'S,1R,3S)-5,12-Dixydroxy-3-isopropy-1-(2',3',6'-trideoxy-3'-amino 'L-lyxohexopyranose)-1,2,3,4-tetrahydro-(2-oxygen)-naphtacene-6,11-dione-hydrochloride], the half-maximal inhibitory concentration (IC50) was determined as 70.6 nM in assay [1] (read-out: IC50); 304 nM in assay [2] (read-out: IC50); 67.2 nM in assay [3] (read-out: IC50); 38.4 nM in assay [4] (read-out: IC50); 412 nM in assay [5] (read-out: IC50). Besides, in assay [3], the VLB/OV3 came out at 0.95.
Regarding `C[C@@H]1O[C@@H](O[C@@H]2O[C@@H](COc3ccccc3)CC3=C2C(=O)c2cc4ccccc4c(O)c2C3=O)C[C@H](NC(=O)C(F)(F)F)[C@@H]1O` [BCH-2057, (1'S,1S,3R)-5,12-dioxo-6-hydroxy-3-phenyloxymethyl-1-(2',3',6'-trideoxy-3'-trifluoroacetamido-L-lyxohexopyranose)-3,4,5,12-tetrahydroanthraceno-[2,3-c]pyran], the half-maximal inhibitory concentration (IC50) in assay [1] (read-out: IC50) turned out to be 1030 nM; in assay [2] (read-out: IC50), 2690 nM; in assay [3] (read-out: IC50), 5160 nM; in assay [4] (read-out: IC50), 1490 nM; in assay [5] (read-out: IC50), 243 nM. Besides, the VLB/OV3 in assay [3] is 5.01.
On to `CC(=O)[C@@H]1Cc2c(O)c3c(c(O)c2[C@@H](O[C@@H]2O[C@@H](C)[C@@H](O)[C@@H](NC(=O)C(F)(F)F)C2I)O1)C(=O)c1ccccc1C3=O` (stereo partly shown) [BCH-2063], for which the IC50 in assay [1] (read-out: IC50) was 447 nM; in assay [2] (read-out: IC50) it was 2660 nM; in assay [3] (read-out: IC50), 1940 nM; in assay [4] (read-out: IC50), 314 nM; in assay [5] (read-out: IC50), 146 nM. In addition, the VLB/OV3 in assay [3] was found to be 4.34.
In the case of `CC(=O)[C@H]1CC2=C(C(=O)c3cc4ccccc4c(O)c3C2=O)[C@H](O[C@@H]2O[C@@H](C)[C@@H](O)[C@@H](NC(=O)C(F)(F)F)C2I)O1` (stereo partly shown) [BCH-2064], the IC50 was determined as 1450 nM in assay [1] (read-out: IC50); 440 nM in assay [2] (read-out: IC50); 3450 nM in assay [3] (read-out: IC50); 10800 nM in assay [4] (read-out: IC50); 878 nM in assay [5] (read-out: IC50). Further, the VLB/OV3 in assay [3] turned out to be 2.38.
Regarding `CC(=O)[C@@H]1Cc2c(O)c3c(c(O)c2[C@@H](O[C@@H]2O[C@@H](C)[C@@H](O)[C@@H](N)C2I)O1)C(=O)c1ccccc1C3=O` (stereo partly drawn) [BCH-2066, (1'S,1R,3S)-Methyl-(5,12-dihydroxy-1-[2',3',6'-trideoxy-3'-amino-4'hydroxy-2'-iodo-L-lyxohexopyranose]-6,11-dioxo-3,4,6,11-tetrahydroanthraceno-[2,3C]-pyran-3-yl) ketone hydrochloride], the half-maximal inhibitory concentration (IC50) in assay [1] (read-out: IC50) was 92.7 nM; in assay [2] (read-out: IC50), 534 nM; in assay [3] (read-out: IC50), 586 nM; in assay [4] (read-out: IC50) it was 105 nM; in assay [5] (read-out: IC50), 501 nM. The VLB/OV3 in assay [3] stood at 6.32.
Consider `CC(=O)[C@@H]1CC2=C(C(=O)c3cc4ccccc4c(O)c3C2=O)[C@@H](O[C@H]2O[C@H](CO)[C@@H](O)[C@H](O)[C@H]2NC(=O)N(CCCl)N=O)O1` [BCH-2073, (1'R, 1R,3S)-3-Aceto-6-hydroxy-1-(2-deoxy-2-chloroethylnitrosoureido-D-glucopyranose)-5,12-dioxo-3,4,5,12-tetrahydro-1H-anthra[2,3-C]pyran], for which the IC50 in assay [1] was found to be 5140 nM; in assay [2] it was 6590 nM; in assay [3], 13700 nM; in assay [4], 807 nM; in assay [5] it was 6120 nM. Moreover, the VLB/OV3 in assay [3] is 2.67.
On to `CC(=NO)[C@H]1Cc2c(O)c3c(c(O)c2[C@H](O[C@H]2C[C@H](N)[C@H](O)[C@H](C)O2)O1)C(=O)c1ccccc1C3=O` [BCH-2074, (1'S, 1S,3R)-3-(Oximoethyl)-5,12-dihydroxy-1(2,3,6-trideoxy-3-amino-L-lyxohexolpyranose)-6,11-dioxo-3,4,6,11-tetrahydro-1H-anthra[2,3-C]pyran hydrochloride], for which the half-maximal inhibitory concentration (IC50) came out at 310 nM in assay [1] (read-out: IC50); 586 nM in assay [2] (read-out: IC50); 14100 nM in assay [3] (read-out: IC50); 148 nM in assay [4] (read-out: IC50); 693 nM in assay [5] (read-out: IC50). In assay [3], the VLB/OV3 is reported as 45.48.
Regarding `CCC1COC(OC2CC(NC(=O)C(F)(F)F)C(O)C(C)O2)C2=C1C(=O)c1c(cc3ccccc3c1O)C2=O` [BCH-2080, (1'S,1S,4S)-5,12-Dioxo-4-ethyl-6-hydroxy-1-(2',3',6'-trideoxy-3'-trifluoroacetamido-L-lyxohexopyranose)-3,4,5,12-tetrahydroanthraceno-[2,3-c]-pyran], the IC50 in assay [1] (read-out: IC50) is 2400 nM; in assay [2] (read-out: IC50), 3000 nM; in assay [3] (read-out: IC50) it was 4700 nM; in assay [4] (read-out: IC50), 2100 nM; in assay [5] (read-out: IC50) it was 3600 nM.
On the same counts, the results for `CCC1COC(OC2CC(N)C(O)C(C)O2)c2c(O)c3c(c(O)c21)C(=O)c1ccccc1C3=O` [BCH-2086, (1'S,1R,4R)-5,12-Dihydroxy-4-ethyl-1-(2',3',6'-trideoxy-3'-amino-L-lyxohexopyranose)-1,2,3,4-tetrahydro-(2-oxygen)-naphthacene-6,11-dione-hydrochloride] are 860 nM, 640 nM, 1700 nM, 360 nM and 1400 nM.
With `CCCCC[C@H]1Cc2c(O)c3c(c(O)c2[C@H](O[C@H]2C[C@H](N)[C@H](O)[C@H](C)O2)O1)C(=O)c1ccccc1C3=O` [BCH-2088, (1'S,1S,3S)-5,12-mihydroxy-3-pentyl-1-(2',3',6'-trideoxy-3'-amino-L-lyxohexopyranose)-1,2,3,4-tetrahydro-(2-oxygen)-naphtacene-6,11-dione-hydrochloride], the IC50 in assay [1] (read-out: IC50) is 573 nM; in assay [2] (read-out: IC50), 24 nM; in assay [3] (read-out: IC50), 1090 nM; in assay [4] (read-out: IC50), 201 nM; in assay [5] (read-out: IC50), 174 nM. In addition, the VLB/OV3 in assay [3] was 1.90.
In the case of `CCCCCC1Cc2c(O)c3c(c(O)c2C(O[C@H]2C[C@H](N)[C@H](O)[C@H](C)O2)O1)C(=O)c1ccccc1C3=O` (stereo partly drawn) [BCH-2089, (1'S,1R,3R)-5,12-Dihydroxy-3-pentyl-1-(2',3',6'-trideoxy-3'-amino-L-lyxohexopyranose)-1,2,3,4-tetrahydro-(2-oxygen)-naphtacene-6,11-dione-hydrochloride], the IC50 is 332 nM in assay [1] (read-out: IC50); 194 nM in assay [2] (read-out: IC50); 420 nM in assay [3] (read-out: IC50); 104 nM in assay [4] (read-out: IC50); 201 nM in assay [5] (read-out: IC50). Further, in assay [3], the VLB/OV3 is reported as 1.27.
For the molecule `CC(=O)[C@@H]1CC2=C(C(=O)c3cc4ccccc4c(O)c3C2=O)[C@@H](O[C@H]2C[C@H](NC(=O)C(F)(F)F)[C@H](OS(C)(=O)=O)[C@H](C)O2)O1` [BCH-2093, (1S,1R,3S)-Methyl-(6-hydroxy-1-(2',3',4',6'-tetradeoxy-3'-trifluoroacetamido-4'-O-methanesulfonyl-L-lyxohexopyranose)-5,12-dioxo-3,4,5,12-tetrahydroanthraceno[2,3-c]pyran-3-yl)ketone], the 50% inhibitory concentration (IC50) is 10300 nM in assay [1] (read-out: IC50); 2800 nM in assay [2] (read-out: IC50); 39300 nM in assay [3] (read-out: IC50); 4360 nM in assay [4] (read-out: IC50); 15900 nM in assay [5] (read-out: IC50). Moreover, the VLB/OV3 in assay [3] was 3.82.
Consider `CC(=O)C1CC2=C(C(=O)c3cc4ccccc4c(O)c3C2=O)C(O[C@H]2C[C@H](NC(=O)C(F)(F)F)[C@H](OS(C)(=O)=O)[C@H](C)O2)O1` (stereo partly shown) [BCH-2094], for which the concentration for half-maximal inhibition (IC50) was 4700 nM in assay [1] (read-out: IC50); 1060 nM in assay [2] (read-out: IC50); 12000 nM in assay [3] (read-out: IC50); 1400 nM in assay [4] (read-out: IC50); 6510 nM in assay [5] (read-out: IC50). Moreover, the VLB/OV3 in assay [3] is given as 2.55.
